Results on 11 compounds are retold here after ChEMBL document CHEMBL1201862, “PubChem BioAssay data set” (2004).

Each structure is given as a SMILES string.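 A five-concentration, 48-hour dose response in 96-well plates underlies each endpoint, interpolated linearly between surrounding concentrations. The concentration for 50% growth inhibition is given as GI50.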 The source made the active and inactive calls. Rule as the data show it: active = GI50 up to about 1.1 µM and inactive = higher. Bridge positions count the residues as written; N and C are the ends. Square brackets hold non-standard residues; d marks the D form. Peptide text beside a SMILES is read from it. * marks the point of attachment. Cbz = O=C(OCc1ccccc1)*; Dab = NCC[CH](N)C(=O)O; Bn = c1ccc(C*)cc1

Some test systems named below: MOLT-4; SK-MEL-5; SK-OV-3; M14; 786-0; PC-3; IGROV-1; BT-549; HCT-116; MDA-MB-435; HT-29; CCRF-CEM; CAKI-1; OVCAR-4; COLO 205; HCT-15; HCC 2998; EKVX; HOP-92; MDA-MB-231.
Holding throughout (experiment): DTP human tumour cell line panel, 48 h

One may read the GI50 as the concentration giving 50% growth inhibition. In the case of `O=c1c(/C=C/c2c(O)ccc3ccccc23)nnc2sc(-c3cccc(Br)c3)nn12`, the GI50 in the test on MOLT-4 is 3.4 µM (inactive); in the test with SK-MEL-5, 17.8 µM (inactive); with SK-OV-3, 30.1 µM (inactive); in the test with M14, 15.8 µM (inactive); in the test on 786-0, 26.6 µM (inactive); with PC-3, 22.4 µM (inactive). The GI50 was 0.773 µM (active) in the test on IGROV-1; 11.6 µM (inactive) in the test on BT-549; 22.5 µM (inactive) in the test on HCT-116; 21.1 µM (inactive) with MDA-MB-435; 29.9 µM (inactive) in the test on HT-29; 3.82 µM (inactive) in the test with CCRF-CEM. Moreover, the GI50 is 15.3 µM (inactive) in the test on CAKI-1; 4.8 µM (inactive) in the test on OVCAR-4; 39.2 µM (inactive) in the test on COLO 205; 6.78 µM in the test on HCT-15; 20.1 µM (inactive) in the test on HCC 2998; 16.7 µM (inactive) in the test with EKVX.

As to `CC(C)CC1NC(=O)C(Cc2ccccc2)NC(=O)C(Cc2ccccc2)NC(=O)C(NC(=O)C(Cc2ccc(OCc3ccccc3)cc2)NC(=O)OCc2ccccc2)CCNC1=O` (stereo unspecified) (Cbz-Y(Bn)[Dab]FFL; lactam 2-C; configuration not given here), the GI50 is 14.6 µM (inactive) in the test on MOLT-4; 76.4 µM (inactive) in the test with SK-MEL-5; > 100 µM (inactive) in the test with SK-OV-3; 18.6 µM (inactive) with M14; 41.1 µM (inactive) in the test on 786-0; 68.2 µM (inactive) in the test with PC-3. Further, the GI50 in the test on IGROV-1 is 78.5 µM (inactive); with HCT-116 it was > 100 µM (inactive); in the test on MDA-MB-435, 30.4 µM (inactive); in the test with HT-29, > 100 µM (inactive); in the test on CCRF-CEM, 33.7 µM (inactive); with HOP-92, 40.2 µM (inactive). Also, the GI50 with MDA-MB-231 is 16.4 µM (inactive); in the test on CAKI-1, > 100 µM (inactive); with OVCAR-4, 47.2 µM (inactive); with COLO 205, > 100 µM (inactive); in the test on HCT-15 it was 41.3 µM; in the test with HCC 2998 it was > 100 µM (inactive). Moreover, in the test with EKVX, the GI50 is > 100 µM (inactive).

For the compound `O=c1[nH]nc(Cc2ccccc2)[nH]1`, the GI50 in the test on MOLT-4, in the test on SK-MEL-5, with M14, in the test on 786-0, with PC-3 and in the test on IGROV-1 was > 100 µM (inactive) each time. For the same compound, the GI50 in the test on BT-549, with HCT-116, in the test on MDA-MB-435, with HT-29, with CCRF-CEM and in the test with HOP-92 was > 100 µM (inactive) in each case. The GI50 in the test on CAKI-1 was > 100 µM (inactive); in the test on OVCAR-4, > 100 µM (inactive); in the test on COLO 205, > 100 µM (inactive); in the test on HCT-15 it was more than 100 µM; in the test with HCC 2998 it was > 100 µM (inactive); in the test on EKVX, > 100 µM (inactive).

For `CCOC(=O)C1=COC(C)(c2ccccc2)CC1=O` (stereo unspecified), the GI50 in the test with MOLT-4 was 49.7 µM (inactive); in the test on SK-MEL-5 it was > 100 µM (inactive); with SK-OV-3 it was > 100 µM (inactive); in the test with M14, > 100 µM (inactive); in the test on 786-0 it was > 100 µM (inactive); with PC-3 it was > 100 µM (inactive). For the same compound, the GI50 in the test with BT-549, in the test with HCT-116, in the test on MDA-MB-435, in the test with HT-29, in the test on MDA-MB-231 and in the test with CAKI-1 was > 100 µM (inactive) throughout. The GI50 with OVCAR-4 was > 100 µM (inactive); in the test with COLO 205 it was > 100 µM (inactive); with HCT-15, more than 100 µM; in the test with HCC 2998, > 100 µM (inactive); in the test with EKVX, > 100 µM (inactive).

On to `O=C1c2ccccc2C(=O)c2c(NCCCN3CCOCC3)ccc(NCCCN3CCOCC3)c21`, for which the GI50 with MOLT-4 was 1.09 µM (active); in the test on SK-MEL-5 it was 2.51 µM (inactive); in the test with M14, 3.1 µM (inactive); in the test on 786-0 it was 2.29 µM (inactive); in the test on PC-3, 2.61 µM (inactive); in the test on IGROV-1, 4.69 µM (inactive). Moreover, the GI50 was 6.62 µM (inactive) in the test on BT-549; 1.23 µM (inactive) with HCT-116; 1.14 µM (inactive) in the test on HT-29; 2.59 µM (inactive) in the test on CCRF-CEM; 1.89 µM (inactive) with HOP-92; 3.08 µM (inactive) with MDA-MB-231. Besides, the GI50 in the test on CAKI-1 was 4.45 µM (inactive); with OVCAR-4, 2.67 µM (inactive); in the test with HCT-15, 2.55 µM; in the test with HCC 2998, 2.86 µM (inactive); with EKVX, 11 µM (inactive).

With `COC(=O)C1=Cc2cc(OC)c(O)cc2[C@@H](c2ccc(O)c(OC)c2)[C@@H]1C(=O)OC`, the GI50 in the test with MOLT-4 was > 100 µM (inactive); with SK-MEL-5, 43.9 µM (inactive); in the test with M14 it was > 100 µM (inactive); in the test with 786-0 it was > 100 µM (inactive); in the test with PC-3, > 100 µM (inactive); in the test with IGROV-1 it was > 100 µM (inactive). The GI50 in the test on HCT-116 was > 100 µM (inactive); with MDA-MB-435, 45.5 µM (inactive); with HT-29, > 100 µM (inactive); with CCRF-CEM it was > 100 µM (inactive); in the test on HOP-92, 53.7 µM (inactive); in the test on MDA-MB-231, 39.2 µM (inactive). In addition, the GI50 in the test with COLO 205 was > 100 µM (inactive); with HCT-15, more than 100 µM; with HCC 2998 it was > 100 µM (inactive); in the test on EKVX, > 100 µM (inactive).

With `COC1=CC(=O)C(C2(OC(C)C)OC(=O)C(Cl)=C2Cl)=CC1=O` (stereo unspecified), the GI50 with SK-MEL-5 was > 100 µM (inactive); in the test on SK-OV-3, > 100 µM (inactive); in the test on M14, > 100 µM (inactive); with 786-0, 28.9 µM (inactive); in the test with PC-3, > 100 µM (inactive); in the test on HCT-116, > 100 µM (inactive). Also, the GI50 is 41.3 µM (inactive) in the test with MDA-MB-435; > 100 µM (inactive) in the test on HT-29; 82.4 µM (inactive) with CCRF-CEM; > 100 µM (inactive) in the test with HOP-92; > 100 µM (inactive) in the test on MDA-MB-231; > 100 µM (inactive) in the test on CAKI-1. The GI50 in the test with COLO 205 was > 100 µM (inactive); in the test with HCT-15, more than 100 µM; in the test with HCC 2998, > 100 µM (inactive); with EKVX it was > 100 µM (inactive).

In the case of `NC(=O)N/N=C(\C(=O)C(=O)Nc1ccc(Cl)c(C(F)(F)F)c1)c1nc2ccc(C(=O)c3ccccc3)cc2nc1O`, the GI50 with MOLT-4 is 35.3 µM (inactive); in the test with SK-MEL-5 it was 44.3 µM (inactive); in the test on SK-OV-3, 85.7 µM (inactive); in the test with M14, > 100 µM (inactive); in the test on 786-0, > 100 µM (inactive); in the test on IGROV-1, > 100 µM (inactive). Further, the GI50 was > 100 µM (inactive) in the test on HCT-116; 95.3 µM (inactive) with HT-29; 55.8 µM (inactive) in the test on CCRF-CEM; 7.36 µM (inactive) in the test with HOP-92; 27.5 µM (inactive) in the test with CAKI-1; 53.8 µM (inactive) in the test with OVCAR-4. Besides, the GI50 in the test with COLO 205 is > 100 µM (inactive); in the test with HCT-15, more than 100 µM; in the test with HCC 2998, > 100 µM (inactive); in the test with EKVX it was 27.2 µM (inactive).

For `COc1cc(NC(C)=O)ccc1C(=O)N/N=C/c1ccco1`, the GI50 with MOLT-4 is 31.3 µM (inactive); with SK-MEL-5, 44.5 µM (inactive); with SK-OV-3, > 100 µM (inactive); with M14, > 100 µM (inactive); with 786-0, > 100 µM (inactive); in the test with PC-3, > 100 µM (inactive). Moreover, the GI50 in the test on IGROV-1 was > 100 µM (inactive); with BT-549, > 100 µM (inactive); with HCT-116 it was > 100 µM (inactive); in the test with MDA-MB-435, > 100 µM (inactive); in the test with HT-29, > 100 µM (inactive); with CCRF-CEM, 80.2 µM (inactive). The GI50 was > 100 µM (inactive) in the test on HOP-92; 65 µM (inactive) with CAKI-1; > 100 µM (inactive) with OVCAR-4; 31.8 µM (inactive) with COLO 205; more than 100 µM in the test on HCT-15; > 100 µM (inactive) in the test on EKVX.

For the compound `O/N=C1/COC(C(F)(F)F)(C(F)(F)F)C1`, the GI50 in the test with MOLT-4, in the test on SK-MEL-5, in the test on SK-OV-3, with M14, in the test on 786-0 and in the test with PC-3 was > 100 µM (inactive) each time. Further, the GI50 with IGROV-1, in the test with HCT-116, in the test with MDA-MB-435, in the test with HT-29, in the test with HOP-92 and with MDA-MB-231 was > 100 µM (inactive) each time. Further, the GI50 in the test with CAKI-1 is > 100 µM (inactive); in the test on OVCAR-4 it was > 100 µM (inactive); with COLO 205, > 100 µM (inactive); with HCT-15, more than 100 µM; in the test with HCC 2998, > 100 µM (inactive); in the test with EKVX, > 100 µM (inactive).

On to `COC(=O)[C@@H](NC1(c2ccccc2)c2ccccc2-c2ccccc21)[C@H](OC(=O)[C@H]1CCCN1S(=O)(=O)c1ccccc1)C(=O)OC`, for which the GI50 was > 100 µM (inactive) in the test on MOLT-4; > 100 µM (inactive) in the test on SK-MEL-5; 70.6 µM (inactive) with SK-OV-3; > 100 µM (inactive) in the test with M14; > 100 µM (inactive) in the test with 786-0; > 100 µM (inactive) in the test with PC-3. Further, the GI50 in the test on IGROV-1 was > 100 µM (inactive); in the test with HCT-116 it was > 100 µM (inactive); with MDA-MB-435, > 100 µM (inactive); in the test on HT-29 it was > 100 µM (inactive); in the test on CCRF-CEM it was > 100 µM (inactive); in the test with HOP-92, < 0.01 µM (active). The GI50 in the test with MDA-MB-231 is > 100 µM (inactive); in the test with OVCAR-4, > 100 µM (inactive); in the test on COLO 205, > 100 µM (inactive); in the test on HCT-15, more than 100 µM; with HCC 2998 it was > 100 µM (inactive); in the test with EKVX it was 99.5 µM (inactive).
